The record followed here is PMC9834240, “Senescent cells perturb intestinal stem cell differentiation through Ptk7 induced noncanonical Wnt and YAP signaling” (Nature Communications, 2023).

The subject of assay [1] is mouse intestinal organoids. The assay can be described thus: cystic organoid percentage, organoids in conditioned media (SCM/QCM) with or without inhibitors or antibodies. The assay is classed as cell-based. The settings on record: for percentage of cystic organoids: Fig. 3c, dialyzed, individual mice, n = 3; for cystic organoid percentage: DMSO = 0; for effect on cystic organoid phenotype: SCM-exposed organoids. The protocol:
Twenty-four hours before collecting conditioned media (CM), MEFs were washed with serum-free DMEM twice, and serum-free DMEM was added. After 24 h in serum-free DMEM, this CM was collected, filtered using Steriflip filters (Millipore, #SE1M179M6) to remove cell debris, and concentrated using centrifugal filter units (Amicon ultra-15 centricon; Millipore, # UFC900324). […] CM was filtered and dialyzed for 24–48 h to remove the inhibitors before concentration.
(§1) The jejunum part of the small intestine was removed, flushed with PBS, opened longitudinally, then cut into 0.5 cm pieces. The collected tissues were washed with ice cold PBS multiple times by vortexing and incubated in PBS containing 2.5 mM EDTA for 5 min at 37 °C. After gentle shaking and aspiration, tissues were incubated in PBS containing 5 mM EDTA for 7 min at 37 °C. Tissues were then washed with PBS to remove EDTA and vigorously shaken to release crypts. The released crypts were passed through 70 μm strainers, washed with PBS, and pelleted by centrifugation at 200 × g.
(§2) 3-4 biological replicates of organoids from different mice were used per condition. Organoids were cultured in the indicated media, inhibitors, antibodies and/or recombinant proteins for 5 d and fixed in 4% formaldehyde in PBS. Organoids were imaged with a 4× Plan Fluor objective (NA: 0.13, Nikon) on a Nikon Ti-E inverted microscope equipped with a Neo scMOS camera (Andor, Oxford Instruments), a linear encoded automated stage (Applied Scientific Instrumentation), all run by NIS Elements software (Nikon). Organoids were imaged in brightfield and images covering the whole well were stitched and focused into one image projection with an extended depth of focus module (EDF; Nikon). One hundred to 200 organoids per replicate per condition were counted and used for quantification. The number of budding organoids in each condition was normalized by the number of budding organoids in untreated or DMSO treated controls to calculate cystic organoid percentage:1 Cysticorganoidpercentage=100×1−Numberofbuddingorganoidsfromexperiment/Numberofbuddingorganoidsfromcontrol

For assay [2], the system named is mouse intestinal organoids. The assay can be described thus: inhibition of Wnt5a-induced cystic organoids. The assay is classed as cell-based. Set-up: key to cystic organoids (sheet SF.5b): % cystic = 100×(1 − budding organoids treated/control). The settings on record: relative to Untreated = 0. The protocol: as §1, with “g. Resuspended crypts were mixed with Matrigel (Corning, #356231; Lot#8218007) and pipetted into culture plates. After mixture of crypts and Matrigel solidified, IntestiCult Organoid Growth Medium (Stem Cell Technologies, #06005; Lots #1000021927, #1000034230, #1000037372) was added. Seven days after seeding, organoids were resuspended in dissociation buffer (Gentle Cell Dissociation Reagent; Stem Cell Technologies, #07174), dissociated by pipetting, and seeded for experiments.” for “g.”
as §2

“And” between values parts separate entries of the source, which are not always exact repeats. Equal entries are not always repeated.

As to `CNC(=O)[C@H](Cc1c[nH]c2ccccc12)NC(=O)[C@@H](CC(=O)NO)CC(C)C` [GM6001], the “percentage of cystic organoids” value in assay [1] (SCM from MEFs exposed to GM6001 (20 uM, 24 h)) was 29.2391% and 41.0714% and 39.5302%.

For `O=C(CSc1nc2c(c(=O)n1-c1ccccc1)SCC2)Nc1ccc(-c2ccccc2)cn1` [IWP-L6], the cystic organoid percentage was found to be 46.6221 in assay [1] (SF.3d, SCM + inhibitor, replicate 1); 58.2456 in assay [1] (SF.3d, SCM + inhibitor, replicate 2); 31.9347 in assay [1] (SF.3d, SCM + inhibitor, replicate 3).

As to `CN([C@@H](Cc1ccc(OS(=O)(=O)c2cccc3cnccc23)cc1)C(=O)N1CCN(c2ccccc2)CC1)S(=O)(=O)c1cccc2cnccc12` [KN62], the cystic organoid percentage in assay [1] (Fig.5l, 10uM, no conditioned medium, replicate 1) is reported as 0.2849; in assay [1] (Fig.5l, 10uM, no conditioned medium, replicate 2), -0.03848; in assay [1] (Fig.5l, 10uM, no conditioned medium, replicate 3) it was 4.343; in assay [1] (Fig.5l, QCM + 10uM, replicate 1), -7.21; in assay [1] (Fig.5l, QCM + 10uM, replicate 2), -3.018; in assay [1] (Fig.5l, QCM + 10uM, replicate 3), -12.8255. In addition, the cystic organoid percentage in assay [1] (Fig.5l, SCM + 10um, replicate 1) is listed as -3.501; in assay [1] (Fig.5l, SCM + 10um, replicate 2), 1.186; in assay [1] (Fig.5l, SCM + 10um, replicate 3), 0.111.

`O=C(O)c1ccc2c3c1cccc3c(=O)n1c3ccccc3nc21` [STO609]: the cystic organoid percentage in assay [1] (Fig.5l, 5uM, no conditioned medium, replicate 1) is recorded as -8.274; in assay [1] (Fig.5l, 5uM, no conditioned medium, replicate 2), -5.955; in assay [1] (Fig.5l, 5uM, no conditioned medium, replicate 3) it was -8.683; in assay [1] (Fig.5l, QCM + 5uM, replicate 1) it was -3.426; in assay [1] (Fig.5l, QCM + 5uM, replicate 2) it was 1.872; in assay [1] (Fig.5l, QCM + 5uM, replicate 3), -3.616. Besides, the cystic organoid percentage in assay [1] (Fig.5l, SCM + 5um, replicate 1) is 16.8399; in assay [1] (Fig.5l, SCM + 5um, replicate 2), 8.659; in assay [1] (Fig.5l, SCM + 5um, replicate 3), 6.694.

With `CC(C)C[C@H](CC(=O)NO)C(=O)N[C@@H](Cc1ccc2ccccc2c1)C(=O)N[C@@H](C)C(=O)NCCN` [TAPI-1], the “percentage of cystic organoids” value in assay [1] (SCM from MEFs exposed to TAPI-1 (50 uM, 24 h)) was 21.6102% and 25.641% and 30.6707%.

As for `O=C(CCl)c1ccccc1Nc1cccc(C(F)(F)F)c1` [TED347], the cystic organoid percentage is listed as -4.167 in assay [1] (Fig.7e, 2 uM, no conditioned medium, replicate 1); 2.041 in assay [1] (Fig.7e, 2 uM, no conditioned medium, replicate 2); 3.815 in assay [1] (Fig.7e, 2 uM, no conditioned medium, replicate 3); 3.646 in assay [1] (Fig.7e, QCM + 2 uM, replicate 1); 2.9703 in assay [1] (Fig.7e, QCM + 2 uM, replicate 2); -0.09671 in assay [1] (Fig.7e, QCM + 2 uM, replicate 3). For the same compound, the cystic organoid percentage in assay [1] (Fig.7e, SCM + 2 uM, replicate 1) worked out at 13.1944; in assay [1] (Fig.7e, SCM + 2 uM, replicate 2) it was 21.2963; in assay [1] (Fig.7e, SCM + 2 uM, replicate 3) it was 18.1818. For the same compound, the “effect on cystic organoid phenotype” value in assay [1] was “reduced the percentage of cystic organoids”.

As to `CN1CCN(CCCN2c3ccccc3Sc3ccc(C(F)(F)F)cc32)CC1` [Trifluoperazine A], the “cystic organoids (sheet SF.5b)” value in assay [2] (100 nM Trifluoperazine A, no Wnt5a, replicate 1) is 1.842; in assay [2] (100 nM Trifluoperazine A, no Wnt5a, replicate 2), -0.6895; in assay [2] (100 nM Trifluoperazine A, no Wnt5a, replicate 3), -1.481; in assay [2] (100 nM Trifluoperazine A, no Wnt5a, replicate 4) it was 3.596; in assay [2] (1 uM Trifluoperazine A, no Wnt5a, replicate 1), -0.2581; in assay [2] (1 uM Trifluoperazine A, no Wnt5a, replicate 2) it was -2.568. The “cystic organoids (sheet SF.5b)” value was -0.6142 in assay [2] (1 uM Trifluoperazine A, no Wnt5a, replicate 3); -2.171 in assay [2] (1 uM Trifluoperazine A, no Wnt5a, replicate 4); 12.7683 in assay [2] (Wnt5a + 100 nM Trifluoperazine A, replicate 1); 12.5989 in assay [2] (Wnt5a + 100 nM Trifluoperazine A, replicate 2); 11.621 in assay [2] (Wnt5a + 100 nM Trifluoperazine A, replicate 3); 16.7645 in assay [2] (Wnt5a + 100 nM Trifluoperazine A, replicate 4). Besides, the “cystic organoids (sheet SF.5b)” value is on record as 9.106 in assay [2] (Wnt5a + 1 uM Trifluoperazine A, replicate 1); 10.2184 in assay [2] (Wnt5a + 1 uM Trifluoperazine A, replicate 2); 3.882 in assay [2] (Wnt5a + 1 uM Trifluoperazine A, replicate 3); 10.8434 in assay [2] (Wnt5a + 1 uM Trifluoperazine A, replicate 4).

For the compound Verteporfin, in assay [1], the “effect on cystic organoid phenotype” value is on record as “strongly reduced the cystic organoid percentage”.
